Test results taken from patent US8207137B2, “Method of inhibiting angiogenesis or invasion or formation of metastases” (INSERM, priority 2001, dated 2012).

System: MDA MB 231 cells
Test: Athymic murine model of tumor growth
Type: in vivo
Conditions: nude mice, MDA MB 231 tumors; AMEP expressed in muscle after gene electrotransfer, doxycycline induction; after 14 days of treatment
Source text: The cDNA of AMEP was subcloned at the Eco RV site of the vector pBi (Clonetech, Palo Alto, Calif., USA). The expression of the gene of interest in this vector was under the dependence of a promoter responding to tetracycline in an expression system involving the eukaryote gene Tet-On. The Tet-On vector expresses the transactivator rtTA (reverse tetracycline transcriptional activator) and the vector Tet-tTS expresses the silencer tTS (tetracycline transcriptional silencer). The purifications of the plasmids were performed in a manner such that no endotoxin was present (Maxi endo free Kit, Quiagen). The purified plasmid DNA was dissolved in endotoxin-free sterile 0.9% NaCl at the desired concentration.
20 μg of plasmid pBi-AMEP, 10 μg of plasmid Tet-off and 20 μg of plasmid Tet-on were dissolved in 30 μl of sterile 0.9% NaCl and injected into the tibia cranial muscle of nude or C57B1/6 mice aged 8 weeks and previously anesthetized by intraperitoneal inoculation of pentobarbital as described by Mir et al. (Mir et al., 1999). […]
The MDA-MB-231 cells, which had been previously cultured to 80% confluence, were detached, washed and resuspended in PBS at the rate of 20·10^6 cells/ml. […] The size of the tumors was monitored for 14 days after induction.

Which “inhibition of tumor volume” value does the source give for “AMEP: disintegrin domain of human metargidin (Met-420 to Glu-511, SEQ ID NO. 2), 91 amino acids, 9.7 kDa; recombinant or expressed in vivo by gene electrotransfer” here?
The value was 78%.
